The values that follow come from ChEMBL document CHEMBL1201862, “PubChem BioAssay data set” (2004).

The nature of test [1]: ATP-based viability loss in HeLa cells – cell-based, CellTiter-Glo luminescence, dry powder, set 2, cytotoxicity control, dose response (AID 720593). It is filed as functional.
The next test addresses Nonstructural protein 1 (Influenza A virus, UniProt Q194T2). It is filed as functional, Influenza A virus (A/California/07/2009(H1N1)).
For test [2], the target named is Matrix metalloproteinase-14 (Homo sapiens, UniProt P50281). The test is described as follows: SAR confirmation of uHTS hits for a small molecule inhibitors of MT1-MMP activation in a fluorescence assay. It is filed as functional.
Test [3] can be described thus: TNFa-induced NF-kB reporter signal decrease – HEK293 LMP1 reporter cells, dry powder, set 2, selectivity assay for EBV LMP1 NF-kB inhibitor project, dose response (AID 624369). It counts as functional.
Test [4] deals with Vero. The experiment in a line: viability loss in Vero cells – cell-based, plate reader, cherry-pick samples, cytotoxicity control, dose response (AID 687020). It is filed as functional. Conditions: Chlorocebus sabaeus.
Another test deals with A549. The experiment in a line: viability loss in A549 cells – cell-based, plate reader, cherry-pick samples, cytotoxicity control, dose response (AID 687028). It counts as functional. The following applies: Homo sapiens.
A further test concerns the target Fatty acid synthase (Homo sapiens, UniProt P49327). The experiment in a line: inhibition of human FAS-TE enzyme activity – biochemical, endpoint fluorescence intensity, powder samples, SAR follow-up (AID 652164). It counts as functional.
For a further test, the system named is Streptococcus. The test is described as follows: GAS UMAA2166 growth inhibition – luminescence, BacTiterGlo, counter-screen for streptokinase expression inhibitor project, dose response (AID 1915).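 Note: potency for reduction of bacterial viability or growth.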 It is filed as functional, organism-based.
A short description of test [5]: HGIII-sPLA2 enzyme inhibition potency – biochemical, QFRET, IC50, dose response (AID 743457).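 Note: green fluorescence rise as the enzyme cleaves BODIPY PC-A2 in liposomes.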
The test system of test [6] is Streptococcus sp. 'group A'. The test is described as follows: Streptococcus pyogenes SK(-)GAS viability under kanamycin – luminescence, BacTiterGlo, confirmation, counter-screen for streptokinase expression inhibitor project, dose response (AID 1900). It is filed as functional, organism-based.
Test [7] deals with Vero. The experiment in a line: cells. It is filed as functional. Conditions: Chlorocebus sabaeus.
Test [8] can be described thus: activation of miR-122 Renilla sensor silencing – cell-based, Huh7 psiCHECK-miR122, Renilla luciferase, cherry-picked, dose response (AID 651956).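 Note: huh7 hepatoma cells stably carrying a psiCHECK-2 miR-122 sensor plasmid; renilla luciferase signal reporting endogenous miR-122 activity after 48 h compound exposure.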 It counts as functional.
A short description of test [9]: general mammalian cell viability loss – activator set, cherry-pick, cytotoxicity control for miR-122 modulator project, dose response (AID 720690).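 Note: HEK293T human cells scored for general mammalian cytotoxicity.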 It is filed as functional, cell-based.
Another test deals with Albumin (Bos taurus, UniProt P02769). The test is described as follows: Counterscreen for inhibitors of T-cell receptor (TCR)-CD3 interaction: Fluorescence-based biochemical high throughput dose response assay to identify inhibitors of T-cell receptor (TCR)-CD3 interaction using a TAMRA-labeled BSA probe. It counts as functional.
Chain of Albumin (P02769 whole entry): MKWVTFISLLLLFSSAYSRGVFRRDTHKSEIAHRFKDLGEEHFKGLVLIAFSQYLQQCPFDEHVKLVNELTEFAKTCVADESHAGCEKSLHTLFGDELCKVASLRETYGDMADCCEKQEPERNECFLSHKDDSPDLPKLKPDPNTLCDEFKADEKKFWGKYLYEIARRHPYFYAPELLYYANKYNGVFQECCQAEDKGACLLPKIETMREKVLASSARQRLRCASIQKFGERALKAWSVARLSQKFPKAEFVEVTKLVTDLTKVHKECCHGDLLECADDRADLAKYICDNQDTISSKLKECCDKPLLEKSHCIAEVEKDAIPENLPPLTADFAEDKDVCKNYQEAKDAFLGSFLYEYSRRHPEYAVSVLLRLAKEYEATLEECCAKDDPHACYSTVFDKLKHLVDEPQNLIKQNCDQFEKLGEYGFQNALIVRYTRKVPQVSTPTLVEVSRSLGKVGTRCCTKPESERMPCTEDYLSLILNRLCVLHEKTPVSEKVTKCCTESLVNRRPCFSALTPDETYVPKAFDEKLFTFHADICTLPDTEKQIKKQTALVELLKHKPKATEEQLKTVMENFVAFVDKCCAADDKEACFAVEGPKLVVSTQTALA

Activity calls are given as the source filed them.

Chain of Nonstructural protein 1 (Q194T2 whole entry): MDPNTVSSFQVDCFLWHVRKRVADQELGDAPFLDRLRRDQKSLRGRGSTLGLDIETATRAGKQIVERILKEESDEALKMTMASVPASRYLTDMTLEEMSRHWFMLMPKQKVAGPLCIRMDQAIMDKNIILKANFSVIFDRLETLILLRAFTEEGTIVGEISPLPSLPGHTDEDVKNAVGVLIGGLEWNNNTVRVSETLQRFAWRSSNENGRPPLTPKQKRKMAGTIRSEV
Chain of Fatty acid synthase (P49327 whole entry): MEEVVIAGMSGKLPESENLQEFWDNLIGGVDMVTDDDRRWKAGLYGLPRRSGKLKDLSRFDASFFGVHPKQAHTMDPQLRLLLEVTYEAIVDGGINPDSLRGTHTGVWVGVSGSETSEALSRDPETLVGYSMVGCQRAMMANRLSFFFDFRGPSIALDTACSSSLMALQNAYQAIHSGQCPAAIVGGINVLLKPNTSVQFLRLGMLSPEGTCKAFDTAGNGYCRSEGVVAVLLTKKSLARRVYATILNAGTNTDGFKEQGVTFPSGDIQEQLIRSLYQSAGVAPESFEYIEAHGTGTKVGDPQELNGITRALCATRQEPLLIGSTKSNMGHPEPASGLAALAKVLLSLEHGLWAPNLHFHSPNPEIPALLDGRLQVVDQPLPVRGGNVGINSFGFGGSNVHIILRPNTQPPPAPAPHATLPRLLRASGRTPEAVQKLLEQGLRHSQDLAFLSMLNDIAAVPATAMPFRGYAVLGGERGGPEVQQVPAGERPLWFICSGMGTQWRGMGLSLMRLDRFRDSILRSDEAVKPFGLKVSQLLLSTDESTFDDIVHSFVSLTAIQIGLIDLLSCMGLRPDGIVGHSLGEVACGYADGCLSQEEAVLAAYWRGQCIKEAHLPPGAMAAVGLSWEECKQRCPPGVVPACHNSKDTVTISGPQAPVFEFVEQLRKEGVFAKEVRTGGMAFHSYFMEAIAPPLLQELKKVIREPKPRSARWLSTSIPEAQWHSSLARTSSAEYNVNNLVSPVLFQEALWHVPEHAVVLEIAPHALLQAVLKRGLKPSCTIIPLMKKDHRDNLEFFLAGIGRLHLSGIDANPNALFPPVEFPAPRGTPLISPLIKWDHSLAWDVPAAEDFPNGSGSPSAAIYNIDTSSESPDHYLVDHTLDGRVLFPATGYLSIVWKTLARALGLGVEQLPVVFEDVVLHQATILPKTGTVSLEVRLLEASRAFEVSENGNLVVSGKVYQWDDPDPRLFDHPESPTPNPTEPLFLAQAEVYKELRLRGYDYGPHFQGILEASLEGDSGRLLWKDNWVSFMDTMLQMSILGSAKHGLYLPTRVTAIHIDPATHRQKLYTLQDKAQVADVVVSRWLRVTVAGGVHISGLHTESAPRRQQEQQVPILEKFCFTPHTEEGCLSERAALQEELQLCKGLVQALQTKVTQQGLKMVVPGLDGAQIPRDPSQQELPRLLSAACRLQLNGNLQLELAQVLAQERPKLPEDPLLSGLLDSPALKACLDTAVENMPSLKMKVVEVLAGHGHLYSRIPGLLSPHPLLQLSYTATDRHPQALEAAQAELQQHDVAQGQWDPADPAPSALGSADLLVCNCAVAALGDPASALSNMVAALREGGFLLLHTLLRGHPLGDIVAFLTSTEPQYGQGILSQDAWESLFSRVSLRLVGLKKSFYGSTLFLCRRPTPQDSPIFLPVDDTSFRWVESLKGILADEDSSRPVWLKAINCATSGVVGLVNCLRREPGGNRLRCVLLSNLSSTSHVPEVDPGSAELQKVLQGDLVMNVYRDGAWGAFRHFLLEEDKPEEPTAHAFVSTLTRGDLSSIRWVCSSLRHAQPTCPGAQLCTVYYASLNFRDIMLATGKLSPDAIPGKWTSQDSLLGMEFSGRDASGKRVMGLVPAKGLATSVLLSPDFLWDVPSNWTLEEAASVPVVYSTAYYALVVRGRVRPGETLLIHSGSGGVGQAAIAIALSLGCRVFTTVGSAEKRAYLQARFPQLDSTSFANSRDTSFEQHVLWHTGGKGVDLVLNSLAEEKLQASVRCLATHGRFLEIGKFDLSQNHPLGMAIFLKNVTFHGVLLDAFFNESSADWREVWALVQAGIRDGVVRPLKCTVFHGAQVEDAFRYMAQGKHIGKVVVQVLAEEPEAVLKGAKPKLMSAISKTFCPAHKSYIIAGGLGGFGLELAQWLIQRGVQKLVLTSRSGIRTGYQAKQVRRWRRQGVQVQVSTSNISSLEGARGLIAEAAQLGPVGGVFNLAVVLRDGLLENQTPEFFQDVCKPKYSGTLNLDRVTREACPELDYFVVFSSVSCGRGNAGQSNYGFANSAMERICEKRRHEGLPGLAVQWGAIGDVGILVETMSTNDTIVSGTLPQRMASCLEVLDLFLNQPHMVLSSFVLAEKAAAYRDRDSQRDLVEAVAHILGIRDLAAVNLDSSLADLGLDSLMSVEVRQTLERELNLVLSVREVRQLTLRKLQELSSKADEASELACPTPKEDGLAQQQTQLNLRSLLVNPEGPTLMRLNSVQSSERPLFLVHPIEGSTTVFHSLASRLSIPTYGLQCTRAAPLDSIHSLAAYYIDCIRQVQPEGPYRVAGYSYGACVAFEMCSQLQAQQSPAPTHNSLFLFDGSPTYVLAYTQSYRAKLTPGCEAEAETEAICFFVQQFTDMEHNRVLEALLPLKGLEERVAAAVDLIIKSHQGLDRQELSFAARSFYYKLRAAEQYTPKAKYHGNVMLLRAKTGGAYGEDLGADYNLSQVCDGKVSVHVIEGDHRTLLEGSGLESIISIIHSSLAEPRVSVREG

With `c1ccc(-c2n[nH]c(-c3ccncc3)n2)nc1`, the AC50 in test [1] is > 52 µM (inactive). Further, the concentration for half-maximal inhibition (IC50) on Nonstructural protein 1 is 9.19 µM (active).

In the case of `CN1/C(=C/C=C/c2n(C)c3cc([N+](=O)[O-])c([N+](=O)[O-])cc3[n+]2C)C(C)(C)c2ccccc21`, in test [2], the IC50 was 6.88 µM (active).

In test [3], `O=C(C[C@@H]1C[C@H]2c3cc(NC(=O)c4ccc5c(c4)OCO5)ccc3O[C@H]2[C@H](CO)O1)NC1CCCCC1` registered an AbsAC35 of 166.85 µM.

As for `Nc1nc2ccccc2n1Cc1ccc(Cl)c(Cl)c1`, the figures for the AC50 with Vero [4] and in the test on A549 were 1.28 µM (active) and 2.82 µM (active), respectively.

For the compound `CCC(=O)Nc1nc(-c2ccc(S(=O)(=O)N3CCC(C)CC3)cc2)cs1`, at Fatty acid synthase, the IC50 is > 80 µM (inactive).

For the compound `COc1ccc(C(=O)NC(=S)NNC(=O)[C@H]2C[C@@H]2c2ccccc2)cc1OC`, the EC50 was 3.19 µM (active) in the test on Streptococcus and 1.36 µM (active) in test [6]. In test [5], the IC50 was 65.8 µM (inactive). Also, the CC50 in the test with Vero [7] is > 25 µM (active).

Take `CO[C@@H]1CN(C)C(=O)c2ccc(NC(=O)c3ccc(Oc4ccccc4)cc3)cc2OC[C@H](C)NC[C@@H]1C`: the values for the concentration at half-maximal activity (AC50) in test [8] and in [9] were 11.3 µM (active) and 23.6 µM (active), respectively.

Take `O=c1cc(-c2ccc(O)c(O)c2)oc2ccc3ccccc3c12`: the IC50 at Albumin is > 94.2 µM (inactive).
